Source: US8106055B2, “Substituted amide compounds” (Gruenenthal GmbH, priority 2007, dated 2012)

What was measured:
[1] = molecular target: T1, bradykinin 1 receptor (B1R) of the rat (Rattus norvegicus, UniProt P97583); assay: Functional investigation on the rat bradykinin 1 receptor (B1R), Ca2+ FLIPR assay in CHO K1 rB1R cells; type: cell-based; conditions: CHO-K1, B1R antagonism rat; test substance 10 μM; Ca2+ FLIPR, CHO K1 rB1R cells; read-out: B1R Ant. r [10 μM] % Inhibition
T1 construct: expressed in transfected cells; host or cells: CHO K1 cells
T1 sequence (P97583 1-337): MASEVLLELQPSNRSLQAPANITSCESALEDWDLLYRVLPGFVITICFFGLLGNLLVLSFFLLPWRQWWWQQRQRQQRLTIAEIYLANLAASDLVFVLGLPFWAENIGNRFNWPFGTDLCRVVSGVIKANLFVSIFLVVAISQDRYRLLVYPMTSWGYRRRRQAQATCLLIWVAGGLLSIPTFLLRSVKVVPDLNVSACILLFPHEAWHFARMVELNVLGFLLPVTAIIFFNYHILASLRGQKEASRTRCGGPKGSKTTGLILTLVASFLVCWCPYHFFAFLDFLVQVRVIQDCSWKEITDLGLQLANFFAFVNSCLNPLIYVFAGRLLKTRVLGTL
Procedure, shortened: (§1)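 Fluo-4 Ca2+ readout, peak fluorescence. Stable CHO K1 transfectants; compound pre-incubated 10-20 min, then EC80 agonist—Lys-Des-Arg9-BK for hB1R, Des-Arg9-BK for rB1R. % inhibition vs maximal inhibition; IC50 from multiple concentrations, duplicate/triplicate, ≥2 independent runs.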

[2] = molecular target: T2, human bradykinin 1 receptor (B1R) (Homo sapiens, UniProt P46663); assay: Functional investigation on the human bradykinin 1 receptor (B1R), Ca2+ FLIPR assay in CHO K1 hB1R cells; type: cell-based; conditions: CHO-K1, B1R antagonism human; test substance 10 μM; Ca2+ FLIPR, CHO K1 hB1R cells; read-out: B1R Ant. h [10 μM] % Inhibition
T2 construct: expressed in transfected cells; host or cells: CHO K1 cells
T2 sequence (P46663 1-353): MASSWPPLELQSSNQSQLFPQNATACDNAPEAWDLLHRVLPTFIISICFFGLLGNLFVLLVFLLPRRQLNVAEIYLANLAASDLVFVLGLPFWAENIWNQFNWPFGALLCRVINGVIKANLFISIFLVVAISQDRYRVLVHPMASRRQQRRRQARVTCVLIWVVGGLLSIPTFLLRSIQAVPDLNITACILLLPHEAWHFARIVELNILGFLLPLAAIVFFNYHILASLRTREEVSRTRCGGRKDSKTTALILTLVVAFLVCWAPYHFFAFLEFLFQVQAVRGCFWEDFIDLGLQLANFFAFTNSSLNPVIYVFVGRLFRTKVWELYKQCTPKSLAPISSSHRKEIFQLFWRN
Procedure, shortened: as §1

human μ opiate receptor = molecular target: T3, human μ opiate receptor (Homo sapiens, UniProt P35372); assay: Affinity for the human μ opiate receptor ([3H]-naloxone displacement, CHO-K1 receptor membrane preparation, SPA); type: binding; conditions: 1.5 h, Table 3, to be read in the same way as Table 1; test concentration 1 μM; read-out: μ
T3 construct: purchased PerkinElmer Life Sciences, Zaventem, Belgium RB-HOM; host or cells: CHO-K1 cells (membrane preparation)
T3 sequence (P35372 whole entry): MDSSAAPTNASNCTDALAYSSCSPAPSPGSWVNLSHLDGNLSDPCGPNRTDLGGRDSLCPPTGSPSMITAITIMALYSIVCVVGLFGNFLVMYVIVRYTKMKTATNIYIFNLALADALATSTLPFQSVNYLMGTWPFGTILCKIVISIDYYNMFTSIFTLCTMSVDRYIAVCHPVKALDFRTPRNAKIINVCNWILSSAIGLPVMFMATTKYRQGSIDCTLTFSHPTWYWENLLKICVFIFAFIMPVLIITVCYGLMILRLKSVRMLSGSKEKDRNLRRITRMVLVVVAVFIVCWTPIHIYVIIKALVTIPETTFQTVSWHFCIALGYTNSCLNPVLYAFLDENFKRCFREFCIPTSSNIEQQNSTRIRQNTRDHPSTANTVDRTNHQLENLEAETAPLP
Procedure, shortened: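 Displacement of 1 nmol/l [3H]-naloxone measured by SPA counting after 90 min at room temperature, using human μ receptor CHO-K1 membrane preparation in Tris-HCl buffer with 0.06% BSA. Test substances at 1 μmol/l give % inhibition; dilution series yield IC50, then Ki (Cheng-Prusoff); non-specific binding with 100 μmol/l naloxone.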

| Structure (SMILES) | inhibition at 10 µM [1] [%] | inhibition at 10 µM [2] [%] | inhibition at 1 µM (human μ opiate receptor) [%] |
| --- | --- | --- | --- |
| O=C(COC1CCCN(S(=O)(=O)c2c(Cl)cc(Cl)cc2Cl)C1)NCC1CCC(C(CCc2ccccc2)N2CCCC2)CC1 (stereo not drawn) [Example 729, N-((4-(3-phenyl-1-(pyrrolidin-1-yl)propyl)cyclohexyl)methyl)-2-(1-(2,4,6-trichlorophenylsulfonyl)piperidin-3-yloxy)acetamide] | 22 | 92 | 79 |
| COc1cc(C)c(S(=O)(=O)N2CCCC(OCC(=O)NCC3CCC(C(c4ccccc4)N4CCOCC4)CC3)C2)c(C)c1 (stereo not drawn) [Example 730, 2-(1-(4-methoxy-2,6-dimethylphenylsulfonyl)piperidin-3-yloxy)-N-((4-(morpholino(phenyl)methyl)cyclohexyl)methyl)acetamide] | 38 | 46 | 11 |
| COc1cc(C)c(S(=O)(=O)N2CCCC(OCC(=O)NCC3CCC(C(CCc4ccccc4)N4CCCC4)CC3)C2)c(C)c1 (stereo not drawn) [Example 731, 2-(1-(4-methoxy-2,6-dimethylphenylsulfonyl)piperidin-3-yloxy)-N-((4-(3-phenyl-1-(pyrrolidin-1-yl)propyl)cyclohexyl)methyl)acetamide] | 80 | 101 | 49 |
| CN1CCN(C(c2ccccc2)C2CCC(NC(=O)COCC3CCCN3S(=O)(=O)c3c(Cl)cc(Cl)cc3Cl)CC2)CC1 (stereo not drawn) [Example 732, N-(4-((4-methylpiperazin-1-yl)(phenyl)methyl)cyclohexyl)-2-((1-(2,4,6-trichlorophenylsulfonyl)pyrrolidin-2-yl)methoxy)acetamide] | 84 | 100 | 61 |
| COc1cc(C)c(S(=O)(=O)N2CCCCC2COCC(=O)NC2CCC(C(CCc3ccccc3)N3CCOCC3)CC2)c(C)c1 (stereo not drawn) [Example 733, 2-((1-(4-methoxy-2,6-dimethylphenylsulfonyl)piperidin-2-yl)methoxy)-N-(4-(1-morpholino-3-phenylpropyl)cyclohexyl)acetamide] | 100 | 87 | 21 |
| COc1cc(C)c(S(=O)(=O)N2CCCCC2COCC(=O)NC2CCC(C(CCc3ccccc3)N3CCCCC3)CC2)c(C)c1 (stereo not drawn) [Example 734, 2-((1-(4-methoxy-2,6-dimethylphenylsulfonyl)piperidin-2-yl)methoxy)-N-(4-(3-phenyl-1-(piperidin-1-yl)propyl)cyclohexyl)acetamide] | 104 | 104 | 80 |
| COc1cc(C)c(S(=O)(=O)N2CCCCC2COCC(=O)NC2CCC(C(c3ccccc3)N3CCN(C)CC3)CC2)c(C)c1 (stereo not drawn) [Example 735, 2-((1-(4-methoxy-2,6-dimethylphenylsulfonyl)piperidin-2-yl)methoxy)-N-(4-((4-methylpiperazin-1-yl)(phenyl)methyl)cyclohexyl)acetamide] | 103 | 103 | 56 |
| COc1cc(C)c(S(=O)(=O)N2CCCCC2COCC(=O)NCC2CCC(C(CCc3ccccc3)N3CCCC3)CC2)c(C)c1 (stereo not drawn) [Example 736, 2-((1-(4-methoxy-2,6-dimethylphenylsulfonyl)piperidin-2-yl)methoxy)-N-((4-(3-phenyl-1-(pyrrolidin-1-yl)propyl)cyclohexyl)methyl)acetamide] | 102 | 103 | 34 |
| O=C(COCC1CCCCN1S(=O)(=O)c1c(Cl)cc(Cl)cc1Cl)NC1CCC(C(CCc2ccccc2)N2CCOCC2)CC1 (stereo not drawn) [Example 737, N-(4-(1-morpholino-3-phenylpropyl)cyclohexyl)-2-((1-(2,4,6-trichlorophenylsulfonyl)piperidin-2-yl)methoxy)acetamide] | 56 | 23 | 22 |
| O=C(COCC1CCCCN1S(=O)(=O)c1c(Cl)cc(Cl)cc1Cl)NC1CCC(C(CCc2ccccc2)N2CCCCC2)CC1 (stereo not drawn) [Example 738, N-(4-(3-phenyl-1-(piperidin-1-yl)propyl)cyclohexyl)-2-((1-(2,4,6-trichlorophenylsulfonyl)piperidin-2-yl)methoxy)acetamide] | 62 | 75 | 77 |
| CN1CCN(C(c2ccccc2)C2CCC(NC(=O)COCC3CCCCN3S(=O)(=O)c3c(Cl)cc(Cl)cc3Cl)CC2)CC1 (stereo not drawn) [Example 739, N-(4-((4-methylpiperazin-1-yl)(phenyl)methyl)cyclohexyl)-2-((1-(2,4,6-trichlorophenylsulfonyl)piperidin-2-yl)methoxy)acetamide] | 87 | 104 | 62 |
| COc1cc(C)c(S(=O)(=O)N2CCCC(COCC(=O)NC3CCC(C(CCc4ccccc4)N4CCCCC4)CC3)C2)c(C)c1 (stereo not drawn) [Example 740, 2-((1-(4-methoxy-2,6-dimethylphenylsulfonyl)piperidin-3-yl)methoxy)-N-(4-(3-phenyl-1-(piperidin-1-yl)propyl)cyclohexyl)acetamide] | 70 | 79 | 15 |
| O=C(COCC1CCCN(S(=O)(=O)c2c(Cl)cc(Cl)cc2Cl)C1)NC1CCC(C(CCc2ccccc2)N2CCOCC2)CC1 (stereo not drawn) [Example 741, N-(4-(1-morpholino-3-phenylpropyl)cyclohexyl)-2-((1-(2,4,6-trichlorophenylsulfonyl)piperidin-3-yl)methoxy)acetamide] | 46 | -5 | 16 |
| CN1CCN(C(c2ccccc2)C2CCC(NC(=O)COCC3CCCN(S(=O)(=O)c4c(Cl)cc(Cl)cc4Cl)C3)CC2)CC1 (stereo not drawn) [Example 742, N-(4-((4-methylpiperazin-1-yl)(phenyl)methyl)cyclohexyl)-2-((1-(2,4,6-trichlorophenylsulfonyl)piperidin-3-yl)methoxy)acetamide] | 53 | 36 | 29 |
| O=C(COC1CCN(S(=O)(=O)c2c(Cl)cc(Cl)cc2Cl)C1)NCC1CCC(C(c2ccccc2)N2CCOCC2)CC1 (stereo not drawn) [Example 743, N-((4-(morpholino(phenyl)methyl)cyclohexyl)methyl)-2-(1-(2,4,6-trichlorophenylsulfonyl)pyrrolidin-3-yloxy)acetamide] | 10 | -3 | 8 |
| COc1cc(C)c(S(=O)(=O)N2CCCC(COCC(=O)NCC3CCC(C(c4ccccc4)N4CCOCC4)CC3)C2)c(C)c1 (stereo not drawn) [Example 744, 2-((1-(4-methoxy-2,6-dimethylphenylsulfonyl)piperidin-3-yl)methoxy)-N-((4-(morpholino(phenyl)methyl)cyclohexyl)methyl)acetamide] | 40 | 18 | 13 |
| O=C(COC1CCN(S(=O)(=O)c2c(Cl)cc(Cl)cc2Cl)C1)NCC1CCC(C(CCc2ccccc2)N2CCOCC2)CC1 (stereo not drawn) [Example 745, N-((4-(1-morpholino-3-phenylpropyl)cyclohexyl)methyl)-2-(1-(2,4,6-trichlorophenylsulfonyl)pyrrolidin-3-yloxy)acetamide] | 44 | 45 | 8 |
| CN(CCOCC(=O)NCC1CCC(C(CCc2ccccc2)N2CCCC2)CC1)S(=O)(=O)c1c(Cl)cc(C(F)(F)F)cc1Cl (stereo not drawn) [Example 746, 2-(2-(2,6-dichloro-N-methyl-4-(trifluoromethyl)phenylsulfonamido)ethoxy)-N-((4-(3-phenyl-1-(pyrrolidin-1-yl)propyl)cyclohexyl)methyl)acetamide] | 51 | 98 | 8 |
| O=C(COC1CCCN(S(=O)(=O)c2c(Cl)cc(Cl)cc2Cl)C1)NCC1CCC(C(CCc2ccccc2)N2CCOCC2)CC1 (stereo not drawn) [Example 747, N-((4-(1-morpholino-3-phenylpropyl)cyclohexyl)methyl)-2-(1-(2,4,6-trichlorophenylsulfonyl)piperidin-3-yloxy)acetamide] | 32 | 24 | 23 |
